How the values were obtained:
RG2 cells = test: Luciferase gene transfer activity of modified lipoplexes in RG2 cells; format: cell-based, rat; conditions: 48 hours, 1 μg per well
Method: FIG. 12. In vitro gene transfer activity of lipoplexes modified with different lipids. Complexes with DOPE-MPB-Cys, DOPE or CXCR4-lipopeptide were incubated with RG2 cells (1 μg pLC0888/well). Each point is an average of three wells ±SD.
Preparation of lipoplexes. The lipid-based transfection-reagent (Genzyme lipid 89:Lym-X-Sorb:Vitamin E 10:89:1) was prepared aseptically by mixing 8 μl of Genzyme lipid 89 (25 mg/ml in chloroform or 0.038 μmoles/μl) (Genzyme, Cambridge, Mass.); 7.5 μl Lym-X-Sorb (138 mg/ml in chloroform or 0.365 μmoles/μl) (Avanti Polar Lipids, Birmingham, Ala.) and 2.2 μl Vitamin E (5.905 mg/ml or 0.0137 μmoles/μl) (Sigma, St Louis, Mo.) in a clean reagent-tube. Once the lipids were thoroughly mixed the solvent was evaporated using argon. Residual solvent was removed by placing the vial under a vacuum in the desiccator for 30 mins. The dried lipid-film was hydrated with 3 ml of HEPES Buffered Saline (HBS; 7.5 mM HEPES, 150 mM NaCl). After hydration the transfection-mixture was bath-sonicated for 5 minutes. […]
Luciferase-Assay. […] 150 μl of lysisbuffer (0.1 M potassium phosphate buffer; 1% Tx-100; 1 mM DTT; 2 mM EDTA; pH=7.8) (Sigma, St. Louis, Mo.) was added to each well and the plate was stored at −80° C. for 10 minutes or until ready to be assayed. […]

B16 melanoma cells = test: Luciferase transfection of B16 cells with FGF receptor targeted lipoplexes; format: cell-based; conditions: same experimental conditions as RG2
Method: FIG. 13. Transfection of B16 cells by implementation of FGF receptor targeted lipoplexes. Transfection With CXCR4-ligand targeted lipoplexes leads to increased transfection-efficiency in vitro. Whether increased specific binding to cells expressing the targeted receptor leads to increased transfection-efficiency in vitro is tested by transfecting cells with targeted and untargeted lipoplexes expressing the reporter-enzyme luciferase. Many tumor cell-lines express CXCR4, including the RG2 cell-line (as confirmed by flow cytometry; data not shown). These cells are efficiently transfected with lipoplexes prepared as described in the materials and methods section. Transfection of cells with untargeted lipoplexes coding for GFP at a dose of 1 μg DNA per 50,000 cells typically leads to a 30-40% transfection-efficiency after 48 hours (data not shown). However, whenever the lipid-composition of the optimized formulation was changed by titrating in cysteine-modified DOPE-MPB (DOPE-MPB-Cys) or DOPE instead of Lym-X-Sorb (i.e. modification of helper-lipids); the transfection-efficiency decreased steadily. Even at low concentrations of DOPE-MPB-Cys and DOPE (1 molepercent) transfection-efficiency as measured by luciferase-expression after 48 hours (1 μg per well) was decreased by about 30% (100% being 4*10^4 RLU equivalent to 35 ng recombinant luciferase per well). […]

CCCCCCCC/C=C\CCCCCCCC(=O)OC[C@H](COP(=O)(O)OCCN)OC(=O)CCCCCCC/C=C\CCCCCCCC [DOPE]
decrease of transfection-efficiency as measured by luciferase-expression (RG2 cells; 1 molepercent modification-lipid instead of Lym-X-Sorb): about 30%
transfection-efficiency (luciferase) (RG2 cells; 20 molepercent modification-lipid): 3.9±1.1 % of control
luciferase expression / transfection efficiency as a function of mol % of modifier lipid (B16 melanoma cells): decreased luciferase expression
